# Data: patent publication US9802945B2, “Imidazopyridazine derivatives as modulators of the GABAA receptor activity” (Pfizer Limited, priority 2014, dated 2017)
# Where a name gives a salt, the structure may show the parent alone. Read-outs that look alike come from different tables or passages of the source.
# How the values were obtained:
# [1] = molecular target: GABRA2-GABRB2-GABRG2 chloride currents in HEK cells (Homo sapiens (Human), UniProt P18507+P47869); assay: QPatch whole-cell patch-clamp electrophysiology, enhancement of GABA current (α2); format: cell-based; details: −60 mV, approximately EC10 GABA
# Method: Human Embryonic Kidney (HEK) cells were transfected with a GABRA2-GABRB2-GABRG2 construct using standard techniques.
# For QPatch electrophysiology testing, cells were harvested from flasks by enzymatic dissociation and resuspended in serum-free medium. Cells were typically used for electrophysiological experiments within 24 to 72 hours after splitting.
# (§1) Cell suspension containing HEK cells expressing GABRA2-GABRB2-GABRG2 was placed on the QPatch instrument in serum-free medium into the instrument's cell stirrer. […] All recordings were made at room temperature (22-24° C.).
# (§2) Current records were acquired at 1 KHz and filtered at 0.3 KHz using the Bessel filter. Series resistance compensation was set to 80% in the QPatch software.
# (§3) All compounds were dissolved in dimethyl sulfoxide to make 30 mM or 10 mM stock solutions, which were then diluted to 1000 times the desired final concentration in dimethyl sulfoxide. These were diluted into extracellular solution to attain the final concentrations desired. […] This concentration of dimethyl sulfoxide was present in all samples.
# (§4) Currents were recorded at −60 mV, using an approximately EC10 concentration of gamma-aminobutyric acid (GABA).
# (§5) Compound effect (% enhancement of gamma-aminobutyric acid current) was calculated using the following formula: [((peak modulator current amplitude−leak)−(GABA current amplitude−leak))/(GABA current amplitude−leak)]*100, where ‘leak’ is leak current at −60 mV, ‘peak modulator current amplitude’ is the current elicited by co-application of gamma-aminobutyric acid and test compound, and ‘GABA current amplitude’ is the current elicited by application of gamma-aminobutyric acid alone.
# [2] = molecular target: GABA channels expressing the α1 subunit (GABRA1-GABRB3-GABRG2) in HEK cells (Homo sapiens (Human), UniProt P14867+P18507); assay: QPatch whole-cell patch-clamp electrophysiology, enhancement of GABA current (α1); format: cell-based; details: −60 mV, approximately EC10 GABA
# Method: as §1, §2, §3, §4, §5
# The ability of the compounds of the formula (I) to modulate the GABA channels expressing the α1 subunit (or GABRA1) can also be measured using an assay analogous to that described above but replacing the GABRA2-GABRB2-GABRG2 gene construct with the GABRA1-GABRB3-GABRG2 gene construct. All other conditions remain the same including the same cell line and conditions for cell growth.
# [3] = molecular target: human recombinant GABA A receptor containing the alpha2, beta2, and gamma3 subunits (Homo sapiens, UniProt P47869+Q99928); assay: Radioligand competition binding assay with [3H]Ro-15-1788 (Flumazenil)
# Method: Membranes were prepared from HEK cells expressing hGABA A alpha2beta2-gamma3 receptor, and validated to ascertain protein concentration, receptor expression and to determine the Kd of the flumazenil as well as the Ki of a standard set of compounds before being used to test new compounds.
# 100 ul of radioligand and 100 ul of membrane in 50 mM Tris-HCl and 0.05% F127 with 1 ul of test compound was incubated for 2 hours to allow the reaction to achieve equilibrium, and then harvested onto filter plates, dried and counted on a TopCount NXT. The data was analysed, and the Ki values were presented as the geometric mean of at least two replicates.
# [4] = read-out: GABA-α2 Ki, hGABA A alpha2beta2gamma3 membranes from HEK cells, geometric mean of at least two replicates
# GABRA2-GABRB2-GABRG2 chloride currents in HEK cells, sequence (P47869 29-451): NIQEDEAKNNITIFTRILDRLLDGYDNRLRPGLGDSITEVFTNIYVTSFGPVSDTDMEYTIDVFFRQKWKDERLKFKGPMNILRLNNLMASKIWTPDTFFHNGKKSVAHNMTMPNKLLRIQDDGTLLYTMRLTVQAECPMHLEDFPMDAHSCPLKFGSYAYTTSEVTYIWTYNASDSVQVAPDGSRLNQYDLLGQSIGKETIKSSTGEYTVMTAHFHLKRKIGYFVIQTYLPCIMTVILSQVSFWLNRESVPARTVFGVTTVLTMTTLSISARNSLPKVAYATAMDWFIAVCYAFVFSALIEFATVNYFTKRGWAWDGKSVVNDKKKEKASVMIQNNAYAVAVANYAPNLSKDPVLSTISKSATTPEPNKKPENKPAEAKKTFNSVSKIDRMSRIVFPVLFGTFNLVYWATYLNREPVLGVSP
# GABRA2-GABRB2-GABRG2 chloride currents in HEK cells, sequence (P47870 26-512 partner): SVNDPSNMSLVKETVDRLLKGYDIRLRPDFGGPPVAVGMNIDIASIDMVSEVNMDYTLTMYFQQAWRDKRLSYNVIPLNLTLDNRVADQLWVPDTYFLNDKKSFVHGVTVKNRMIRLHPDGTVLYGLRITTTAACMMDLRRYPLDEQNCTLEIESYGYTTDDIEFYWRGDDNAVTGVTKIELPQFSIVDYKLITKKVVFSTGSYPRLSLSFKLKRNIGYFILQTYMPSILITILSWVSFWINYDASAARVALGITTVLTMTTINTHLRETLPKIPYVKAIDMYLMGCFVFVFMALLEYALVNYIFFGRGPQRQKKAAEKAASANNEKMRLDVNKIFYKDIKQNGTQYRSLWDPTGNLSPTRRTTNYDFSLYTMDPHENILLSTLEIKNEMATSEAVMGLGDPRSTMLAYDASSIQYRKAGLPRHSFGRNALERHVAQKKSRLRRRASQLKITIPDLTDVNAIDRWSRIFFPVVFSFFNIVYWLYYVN
# GABRA2-GABRB2-GABRG2 chloride currents in HEK cells, sequence (P18507 40-475): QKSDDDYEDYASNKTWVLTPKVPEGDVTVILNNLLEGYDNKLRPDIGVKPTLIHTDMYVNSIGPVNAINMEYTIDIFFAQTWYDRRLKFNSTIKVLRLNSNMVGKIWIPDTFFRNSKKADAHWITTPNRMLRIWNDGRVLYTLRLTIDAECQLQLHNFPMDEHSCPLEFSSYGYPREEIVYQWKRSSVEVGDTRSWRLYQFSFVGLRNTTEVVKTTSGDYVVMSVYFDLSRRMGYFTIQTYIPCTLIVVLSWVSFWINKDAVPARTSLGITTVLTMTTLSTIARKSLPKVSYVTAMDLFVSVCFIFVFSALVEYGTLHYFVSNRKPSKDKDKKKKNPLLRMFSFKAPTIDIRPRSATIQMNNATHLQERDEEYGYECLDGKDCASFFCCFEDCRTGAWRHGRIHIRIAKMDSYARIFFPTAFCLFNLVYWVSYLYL
# GABA channels expressing the α1 subunit (GABRA1-GABRB3-GABRG2) in HEK cells, sequence (P14867 28-456): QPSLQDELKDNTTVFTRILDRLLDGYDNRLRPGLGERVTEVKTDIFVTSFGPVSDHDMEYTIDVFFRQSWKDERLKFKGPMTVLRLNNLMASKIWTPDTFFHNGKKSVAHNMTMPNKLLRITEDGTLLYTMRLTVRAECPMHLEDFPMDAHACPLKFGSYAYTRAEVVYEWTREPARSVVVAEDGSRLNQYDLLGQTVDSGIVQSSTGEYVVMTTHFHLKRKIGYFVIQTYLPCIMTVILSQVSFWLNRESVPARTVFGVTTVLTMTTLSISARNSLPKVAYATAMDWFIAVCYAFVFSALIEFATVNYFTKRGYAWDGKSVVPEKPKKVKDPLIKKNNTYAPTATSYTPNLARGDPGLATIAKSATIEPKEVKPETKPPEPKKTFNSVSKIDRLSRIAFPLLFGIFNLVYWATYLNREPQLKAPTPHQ
# GABA channels expressing the α1 subunit (GABRA1-GABRB3-GABRG2) in HEK cells, sequence (P28472 26-473 partner): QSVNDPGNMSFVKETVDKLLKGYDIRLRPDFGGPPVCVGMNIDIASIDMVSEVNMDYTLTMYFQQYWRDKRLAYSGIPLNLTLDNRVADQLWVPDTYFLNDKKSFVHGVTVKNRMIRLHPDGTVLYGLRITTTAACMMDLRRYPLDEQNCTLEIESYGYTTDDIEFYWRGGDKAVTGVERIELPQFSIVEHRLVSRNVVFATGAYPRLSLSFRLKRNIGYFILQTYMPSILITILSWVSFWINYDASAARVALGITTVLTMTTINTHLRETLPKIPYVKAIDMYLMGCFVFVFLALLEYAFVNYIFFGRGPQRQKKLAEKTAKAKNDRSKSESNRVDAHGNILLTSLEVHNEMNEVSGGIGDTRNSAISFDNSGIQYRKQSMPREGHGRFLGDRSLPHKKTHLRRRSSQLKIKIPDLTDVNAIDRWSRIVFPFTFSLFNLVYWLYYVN
# GABA channels expressing the α1 subunit (GABRA1-GABRB3-GABRG2) in HEK cells, sequence (P18507 40-475): as the sequence (P18507 40-475) above
SMILES,α2 PAM (% enhancement of gamma-aminobutyric acid current) [1] [%],α1 PAM (% enhancement of gamma-aminobutyric acid current) [2] [%],"Ki [3, 4] [nM]",Ki [3] [nM]
"CC(C)n1cnc2c(-c3ccc(F)c(-c4ccc5c(c4)CN(C)C5=O)c3)cnnc21 [Example 2, 5-{2-Fluoro-5-[7-(propan-2-yl)-7H-imidazo[4,5-c]pyridazin-4-yl]phenyl}-2-methyl-2,3-dihydro-1H-isoindol-1-one]",106,12,6.4,
"CCn1cnc2c(-c3ccc(F)c(-c4ccc5c(c4)C(=O)NC5)c3)cnnc21 [Example 6, 6-[5-(7-Ethyl-7H-imidazo[4,5-c]pyridazin-4-yl)-2-fluorophenyl]-2,3-dihydro-1H-isoindol-1-one]",10,−61,81.8,
"CCn1cnc2c(-c3ccc(F)c(-c4cc(C(=O)N(C)C)ccc4F)c3)cnnc21 [Example 7, 5′-(7-Ethyl-7H-imidazo[4,5-c]pyridazin-4-yl)-2′,6-difluoro-N,N-dimethylbiphenyl-3-carboxamide]",47,,30.9,
"CNC(=O)c1ccc(F)c(-c2cc(-c3cnnc4c3ncn4C3CC3)ccc2F)c1 [Example 8, 5′-(7-Cyclopropyl-7H-imidazo[4,5-c]pyridazin-4-yl)-2′,6-difluoro-N-methyl-biphenyl-3-carboxamide]",,,29,
"CN1Cc2cc(-c3cc(-c4cnnc5c4ncn5C4CC4)ccc3F)ccc2C1=O [Example 10, 5-[5-(7-Cyclopropyl-7H-imidazo[4,5-c]pyridazin-4-yl)-2-fluorophenyl]-2-methyl-2,3-dihydro-1H-isoindol-1-one]",36,−12,54.7,
"CNC(=O)c1ccc(-c2cc(-c3cnnc4c3ncn4C3CC3)ccc2F)cc1 [Example 11, 5′-(7-Cyclopropyl-7H-imidazo[4,5-c]pyridazin-4-yl)-2′-fluoro-N-methylbiphenyl-4-carboxamide]",60,,20.5,
"CC(C)n1cnc2c(-c3ccc(F)c(-c4ccc(C(N)=O)cc4)c3)cnnc21 [Example 12, 2′-Fluoro-5′-[7-(propan-2-yl)-7H-imidazo[4,5-c]pyridazin-4-yl]biphenyl-4-carboxamide]",48,,10.7,
"CCn1cnc2c(-c3ccc(F)c(-c4ccc(C(N)=O)cc4)c3)cnnc21 [Example 14, 5′-(7-Ethyl-7H-imidazo[4,5-c]pyridazin-4-yl)-2′-fluorobiphenyl-4-carboxamide]",11,−55,7.5,
"CCn1cnc2c(-c3ccc(F)c(-c4cccc(C(N)=O)c4)c3)cnnc21.O=C(O)C(F)(F)F [Example 15, 5′-(7-Ethyl-7H-imidazo[4,5-c]pyridazin-4-yl)-2′-fluorobiphenyl-3-carboxamide trifluoroacetate salt]",40,−34,20.3,
"CCn1cnc2c(-c3ccc(F)c(-c4ccc(C(=O)N(C)C)c(F)c4)c3)cnnc21 [Example 17, 5′-(7-Ethyl-7H-imidazo[4,5-c]pyridazin-4-yl)-2′,3-difluoro-N,N-dimethylbiphenyl-4-carboxamide trifluoroacetate salt]",,,52.8,
"CCn1cnc2c(-c3ccc(F)c(-c4ccc(C(=O)NC(C)C)cc4)c3)cnnc21 [Example 18, 5′-(7-Ethyl-7H-imidazo[4,5-c]pyridazin-4-yl)-2′-fluoro-N-(propan-2-yl)biphenyl-4-carboxamide trifluoroacetate salt]",,,19.3,
"CCn1cnc2c(-c3ccc(F)c(-c4cc(F)cc(C(=O)NC)c4)c3)cnnc21.O=C(O)C(F)(F)F [Example 19, 5′-(7-Ethyl-7H-imidazo[4,5-c]pyridazin-4-yl)-2′,5-difluoro-N-methylbiphenyl-3-carboxamide trifluoroacetate salt]",66,14,51,
"CCn1cnc2c(-c3cccc(-c4ccc(C(=O)N(C)C)cc4)c3)cnnc21 [Example 20, 5′-(7-Ethyl-7H-imidazo[4,5-c]pyridazin-4-yl)-N,N-dimethyl-biphenyl-4-carboxamide trifluoroacetate salt]",,,224,
"CCn1cnc2c(-c3ccc(F)c(-c4ccc(C(=O)NC)cc4OC)c3)cnnc21 [Example 21, 5′-(7-Ethyl-7H-imidazo[4,5-c]pyridazin-4-yl)-2′-fluoro-2-methoxy-N-methylbiphenyl-4-carboxamide]",33,−29,,6.3
"CCn1cnc2c(-c3ccc(F)c(-c4ccc(C(=O)N(C)C)cc4OC)c3)cnnc21 [Example 22, 5′-(7-Ethyl-7H-imidazo[4,5-c]pyridazin-4-yl)-2′-fluoro-2-methoxy-N,N-dimethylbiphenyl-4-carboxamide]",23,−1,,81.2
"CCn1cnc2c(-c3ccc(F)c(-c4cc(C(=O)N(C)C)ccc4OC)c3)cnnc21 [Example 23, 5′-(7-Ethyl-7H-imidazo[4,5-c]pyridazin-4-yl)-2′-fluoro-6-methoxy-N,N-dimethylbiphenyl-3-carboxamide]",,,340,
